Values quoted from earlier work in patent US7276641B2, “External plaster containing 4-biphenylacetic acid” (Teikoku Seiyaku Co., Ltd., priority 2000, dated 2007).
Read-outs that look alike come from different tables or passages of the source.

For `O=C(O)Cc1ccc(-c2ccccc2)cc1` [BPAA, 4-biphenylyl acetic acid], the solubility (aqueous plaster with diisopropanolamine as solubilizer) is given as “not more than 11%”, the solubility (crotamiton as solubilizer) is given as “at most 7%” and the solubility (in acetone, ethanol, glacial acetic acid, and ether) is given as “less soluble”. The solubility (in dimethylacetamide) was “readily soluble”, the solubility (in polyols, glycols, and esters) was “hardly soluble” and the solubility (in water) was “hardly soluble”.
